The text below walks through data of patent US10632105B2, “Pharmacological stimulation to facilitate and restore standing and walking functions in spinal cord motor disorders” (ECOLE POLYTECHNIQUE FEDERALE DE LAUSANNE (EPFL), priority 2013, dated 2020).

Molecules are shown by their SMILES. Entries after “also recorded” stand apart in the source; their conditions may differ.

Experiment [1] deals with cats with a complete spinal cord injury. The settings on record: spinal / spinalized cats, complete SCI; cited from earlier work.
Experiment [2] deals with spinal rats. The experiment is described as follows: Stepping patterns enabled by EES in spinal rats (complete T7 transection, bipedal treadmill). It is filed as in vivo, rat. The conditions noted are these: for locomotion / stepping enabled by EES: treadmill 13 cm/s, clonidine 0.4-0.5 mg/kg, BRL-44408 given 5 min before clonidine in the combination. Here is the method:
Link R E, Desai K, Hein L, Stevens M E, Chruscinski A, Bernstein D, Barsh G S, Kobilka B K. Science. 1996 Aug. 9; 273(5276):803-5).
All procedures have been described in detail previously (see above, Courtine et al., 2009). Briefly, under general anesthesia and aseptic conditions, a partial laminectomy was performed over spinal segments L2 and S1. Teflon-coated stainless-steel wires (AS632; Cooner Wire) were passed under the spinous processes and above the dura mater of the remaining vertebrae between the partial laminectomy sites.
Bipolar intramuscular EMG electrodes using the same wire type as above were inserted bilaterally in the midbelly of the tibialis anterior (TA), midbelly of the vastus lateralis (VL), distal deep compartment of the semitendinosus (St), and medial deep region of the medial gastrocnemius (MG) muscles. All electrode wires were connected to a percutaneous amphenol connector cemented to the rat skull. In the same surgical intervention, the spinal cord was transected completely at a midthoracic level (T7) (Courtine et al., 2009).
All experimental testing followed the same protocol.
In KO mice experiments, only clonidine was injected intraperitoneally.
Three-dimensional video recordings (200 Hz) were made using the motion capture system VICON. Eight infrared television cameras (200 Hz) were used to track the motion of reflective markers attached bilaterally at the iliac crest, greater trochanter, lateral condyle, lateral malleolus, distal end of the fifth metatarsal [metatarsophalangeal joint (MTP)], and tip of the toe (FIG. 1A). Nexus (Vicon) was used to obtain 3-D coordinates of the markers. The body was modeled as an interconnected chain of rigid segments, and joint angles were generated accordingly.
Moments and ground reaction forces in the vertical, antero-posterior, and mediolateral directions were monitored using a biomechanical force plate (2 kHz; HE6X6; AMTI) located below the treadmill belt (FIG. 1A). Vicon BodyBuilder (Vicon) was used to compute the displacements of the center of foot pressures.
EMG signals (2 kHz) were amplified, filtered (10-1000 Hz bandpass), stored, and analyzed off-line to compute the amplitude, duration, and timing of individual bursts (Courtine et al., 2009).
Ten successive step cycles were extracted for both the left and right hindlimbs from a continuous sequence of stepping on the treadmill for each animal under each condition. When no stepping movements were observed, a 10 s period was recorded and analyzed. A total of 129 parameters quantifying gait, kinematics, kinetics, and EMG features were computed for each limb and gait cycle according to methods described in detail previously (Kinematic and EMG determinants in quadrupedal locomotion of a non-human primate (Rhesus). Courtine G, Roy R R, Hodgson J, McKay H, Raven J, Zhong H, Yang H, Tuszynski M H, Edgerton V R. J Neurophysiol. 2005 June; 93(6):3127-45; Recovery of supraspinal control of stepping via indirect propriospinal relay connections after spinal cord injury. Courtine G, Song B, Roy R R, Zhong H, Herrmann J E, Ao Y, Qi J, Edgerton V R, Sofroniew M V. Nat Med. 2008 January; 14(1):69-74; Transformation of nonfunctional spinal circuits into functional states after the loss of brain input. Courtine G, Gerasimenko Y, van den Brand R, Yew A, Musienko P, Zhong H, Song B, Ao Y, Ichiyama R M, Lavrov I, Roy R R, Sofroniew M V, Edgerton V R. Nat Neurosci. 2009 October; 12(10): 1333-42).
These parameters provided a holistic quantification of locomotor patterns ranging from general features of gait to fine details of limb motions and coordination. To allow direct comparisons between the different experimental conditions, all computed variables were normalized to those measured before drug injection (i.e., during locomotion facilitated by dual-site EES alone).
All data are reported as mean values±SEM. Repeated-measures ANOVAs were used to test differences between locomotor parameters recorded before and after drug injections […]

In experiment [3] the test system is α2a KO mice. The settings on record: spinal α2a KO mice, EES, clonidine i.p. Here is the method: (§1) The experiments in rats were conducted on adult female Sprague Dawley (300 g body weight). Functional testings in mice were carried out in α2a and α2c knockout animals aged 3-5 months, from both gender, obtained from L. Hein (University of Freiburg, Germany). The generation of the mouse lines lacking α2-adrenoreceptor subtypes has been previously described in detail (Abnormal regulation of the sympathetic nervous system in alpha2A-adrenergic receptor knockout mice. Altman J D, Trendelenburg A U, MacMillan L, Bernstein D, Limbird L, Starke K, Kobilka B K, Hein L. Mol Pharmacol. 1999 July; 56(1):154-61; Targeted inactivation of the gene encoding the mouse alpha 2c-adrenoceptor homolog. Link R E, Stevens M S, Kulatunga M, Scheinin M, Barsh G S, Kobilka B K. Mol Pharmacol. 1995 July; 48(1):48-55; Cardiovascular regulation in mice lacking alpha2-adrenergic receptor subtypes b and c. Link R E, Desai K, Hein L, Stevens M E, Chruscinski A, Bernstein D, Barsh G S, Kobilka B K. Science. 1996 Aug. 9; 273(5276):803-5). To investigate the spinal distribution of the α2 subtypes, we used BAC transgenic mice expressing the reporter protein GFP upstream the coding sequence of the α2a or α2c receptor subtype (strains 014248-UCD and 030098-UCD MMRRC, USA). All procedures were approved by the Veterinary Office of the Canton of Vaud, Switzerland. Animals were housed individually on a 12 h light/dark cycle, with access to food and water ad libitum.
(§2) All tested animals were allowed to recover for 2-5 weeks after lesion to regain stable levels of excitability in the spinal networks to facilitate locomotion via EES (Epidural stimulation induced modulation of spinal locomotor networks in adult spinal rats. Lavrov I, Dy C J, Fong A J, Gerasimenko Y, Courtine G, Zhong H, Roy R R, Edgerton V R. J Neurosci. 2008). An upper body harness was used to position the rats over a treadmill belt and to partially support their body weight during bipedal locomotion (FIG. 1A). An automated, servocontrolled body weight support system (Robomedica) measured and provided the optimal amount of body weight support that each rat needed to step. To facilitate locomotion via EES, monopolar rectangular pulses (0.2 ms duration) were delivered at 40 Hz using two constant-current stimulators (AM Systems) connected to the electrodes positioned at L2 and S1.

The subject of experiment [4] is α2c KO mice. The conditions noted are these: spinal α2c KO mice, EES, clonidine i.p. Here is the method:
as §1, §2

Experiment [5] relates to humans with a severe spinal cord injury. The settings on record: cited from earlier work.
For experiment [6], the system named is rats with complete SCI. The settings on record: rats with complete SCI (Musienko et al. 2011); cited from earlier work.
The nature of experiment [7]: 8-OHDPAT in combination with α2c stimulation and/or α2a blocking, locomotion. It counts as in vivo. The conditions noted are these: 8-OHDPAT in combination with the α2c stimulation or the α2a blocking or both.
[8] abbreviates: 5 weeks after lesion, with EES, i.p., BRL-44408 4-5 mg/kg.
The mark [9] stands for this setting: 2 weeks after lesion, 200 umol/kg, together with EES.
Setting [10] is: 5 weeks after lesion, with EES, i.p., BRL-44408 4-5 mg/kg, clonidine 0.4 mg/kg.

Turning to `Clc1ccc2nsnc2c1NC1=NCCN1` [tizanidine], in experiment [1], the locomotion entry is given as “facilitated expression of locomotion”.
For `Clc1cccc(Cl)c1N=C1NCCN1` [clonidine], the “locomotion / stepping enabled by EES” value in experiment [2] (setting [8]) is “abolished the stepping enabled by EES”. In experiment [3], the locomotor function entry is on record as “triggered a facilitation of the locomotor function”, the locomotor stability result was “improvement of locomotor stability” and the “movement magnitudes of the hindlimb joints” value is “increase of the movement magnitudes of the hindlimb joints”. In addition, the locomotor abilities result in experiment [4] was “significant blocking of the locomotor abilities”. In addition, the locomotion entry in experiment [1] is on record as “marked facilitation of locomotion”. Further, the locomotion result in experiment [5] (human, clonidine injections (Dietz et al. 1995)) is recorded as “dysfacilitated locomotion”. Also, the “locomotor EMG activity” value in experiment [5] (humans with a severe spinal cord injury, low clonidine dosages (Dietz et al., 1995)) is listed as “suppress or markedly reduce locomotor EMG activity”. In experiment [6], the stepping result was “abolished stepping”.
On to `NC1=N[C@@H](Cc2c(F)cccc2F)CO1` [formula (I)], for which, in experiment [2] (2 weeks after lesion, 200 umol/kg, effect exclusively when applied together with spinal cord stimulation (EES)), the locomotion result was “significantly improved locomotion”. Besides, in experiment [2] (setting [9]), the limb amplitude result was “increased the limb amplitude” and the paw dragging entry was “reduced the paw dragging”.
Take `CCCN(CCC)C1CCc2cccc(O)c2C1` (centres unmarked) [8-OHDPAT]: the locomotion entry in experiment [7] is listed as “further facilitation of locomotion”.
As for `CC1c2ccccc2CN1CC1=NCCN1` (centres unmarked) [BRL-44408, 2-[(4,5-Dihydro-1H-imidazol-2-yl)methyl]-2,3-dihydro-1-methyl-1H-isoindole], the “locomotion / stepping enabled by EES” value in experiment [2] (setting [8]) was “improved locomotion; also recorded: moderately improves locomotion”. Also, in experiment [2] (setting [10]), the paw dragging result is given as “reduced paw dragging” and the step height entry is listed as “substantially improved the step height”.
